Results reported in PubChem BioAssay (NCI).
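Following 48 hours of exposure in 96-well plates, responses at five concentrations were used to interpolate endpoints linearly. At the TGI there is no net growth.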

Legend:
Assay in all cases: NCI-60 cell line screen, 48 h
KM12 colon = test system: KM12 colon
HS 578T breast = test system: HS 578T breast
CCRF-CEM leukemia = test system: CCRF-CEM leukemia
MDA-N = test system: MDA-N
UACC-62 melanoma = test system: UACC-62 melanoma
OVCAR-3 ovarian = test system: OVCAR-3 ovarian
K-562 leukemia = test system: K-562 leukemia
NCI-H460 lung = test system: NCI-H460 lung
HOP-62 NSCLC = test system: HOP-62 NSCLC
T-47D breast = test system: T-47D breast
IGROV1 ovarian = test system: IGROV1 ovarian
EKVX NSCLC = test system: EKVX NSCLC
MOLT-4 leukemia = test system: MOLT-4 leukemia
MALME-3M melanoma = test system: MALME-3M melanoma
UO-31 renal = test system: UO-31 renal
HCT-116 colon = test system: HCT-116 colon
SK-OV-3 ovarian = test system: SK-OV-3 ovarian
PC-3 prostate = test system: PC-3 prostate
NCI-H226 lung = test system: NCI-H226 lung
SK-MEL-5 melanoma = test system: SK-MEL-5 melanoma
UACC-257 melanoma = test system: UACC-257 melanoma
OVCAR-5 ovarian = test system: OVCAR-5 ovarian
786-0 renal = test system: 786-0 renal
NCI-H23 lung = test system: NCI-H23 lung
HCT-15 colon = test system: HCT-15 colon
MDA-MB-231 breast = test system: MDA-MB-231 breast
A498 renal = test system: A498 renal
TK-10 renal = test system: TK-10 renal
SF-295 CNS = test system: SF-295 CNS
SW-620 colon = test system: SW-620 colon
SK-MEL-2 melanoma = test system: SK-MEL-2 melanoma
DU-145 prostate = test system: DU-145 prostate
COLO 205 colon = test system: COLO 205 colon
LOX IMVI melanoma = test system: LOX IMVI melanoma
M14 melanoma = test system: M14 melanoma
NCI-H522 lung = test system: NCI-H522 lung
OVCAR-4 ovarian = test system: OVCAR-4 ovarian
SNB-19 CNS = test system: SNB-19 CNS
CAKI-1 renal = test system: CAKI-1 renal
HCC-2998 colon = test system: HCC-2998 colon
MCF7 breast = test system: MCF7 breast
RPMI-8226 leukemia = test system: RPMI-8226 leukemia
ACHN renal = test system: ACHN renal
SN12C renal = test system: SN12C renal
A549 NSCLC = test system: A549 NSCLC
HL-60(TB) leukemia = test system: HL-60(TB) leukemia
OVCAR-8 ovarian = test system: OVCAR-8 ovarian
NCI/ADR-RES ovarian = test system: NCI/ADR-RES ovarian
SK-MEL-28 melanoma = test system: SK-MEL-28 melanoma
MDA-MB-435 = test system: MDA-MB-435
RXF 393 renal = test system: RXF 393 renal
SF-268 CNS = test system: SF-268 CNS
SR leukemia = test system: SR leukemia
HT29 colon = test system: HT29 colon
SNB-75 CNS = test system: SNB-75 CNS
SF-539 CNS = test system: SF-539 CNS
BT-549 breast = test system: BT-549 breast
U251 CNS = test system: U251 CNS
HOP-92 NSCLC = test system: HOP-92 NSCLC

CSc1c(S(C)=O)c2ccccc2n1C (configuration not stated)
TGI (KM12 colon): > 100 µM | TGI (HS 578T breast): > 100 µM | TGI (CCRF-CEM leukemia): > 100 µM | TGI (MDA-N): > 100 µM | TGI (UACC-62 melanoma): > 100 µM | TGI (OVCAR-3 ovarian): > 100 µM | TGI (K-562 leukemia): > 100 µM | TGI (NCI-H460 lung): > 100 µM | TGI (HOP-62 NSCLC): > 100 µM | TGI (T-47D breast): > 100 µM | TGI (IGROV1 ovarian): > 100 µM | TGI (EKVX NSCLC): > 100 µM | TGI (MOLT-4 leukemia): > 100 µM | TGI (MALME-3M melanoma): > 100 µM | TGI (UO-31 renal): > 100 µM | TGI (HCT-116 colon): > 100 µM | TGI (SK-OV-3 ovarian): > 100 µM | TGI (PC-3 prostate): > 100 µM | TGI (NCI-H226 lung): > 100 µM | TGI (SK-MEL-5 melanoma): > 100 µM | TGI (UACC-257 melanoma): > 100 µM | TGI (OVCAR-5 ovarian): > 100 µM | TGI (786-0 renal): > 100 µM | TGI (NCI-H23 lung): > 100 µM | TGI (HCT-15 colon): > 100 µM | TGI (MDA-MB-231 breast): > 100 µM | TGI (A498 renal): > 100 µM | TGI (TK-10 renal): > 100 µM | TGI (SF-295 CNS): > 100 µM | TGI (SW-620 colon): > 100 µM | TGI (SK-MEL-2 melanoma): > 100 µM | TGI (DU-145 prostate): > 100 µM | TGI (COLO 205 colon): > 100 µM | TGI (LOX IMVI melanoma): > 100 µM | TGI (M14 melanoma): > 100 µM | TGI (NCI-H522 lung): > 100 µM | TGI (OVCAR-4 ovarian): > 100 µM | TGI (SNB-19 CNS): > 100 µM | TGI (CAKI-1 renal): > 100 µM | TGI (HCC-2998 colon): > 100 µM | TGI (MCF7 breast): > 100 µM | TGI (RPMI-8226 leukemia): > 100 µM | TGI (ACHN renal): > 100 µM | TGI (SN12C renal): > 100 µM | TGI (A549 NSCLC): > 100 µM | TGI (HL-60(TB) leukemia): > 100 µM | TGI (OVCAR-8 ovarian): > 100 µM | TGI (NCI/ADR-RES ovarian): > 100 µM | TGI (SK-MEL-28 melanoma): > 100 µM | TGI (MDA-MB-435): > 100 µM | TGI (RXF 393 renal): > 100 µM | TGI (SF-268 CNS): > 100 µM | TGI (SR leukemia): > 100 µM | TGI (HT29 colon): > 100 µM | TGI (SNB-75 CNS): > 100 µM | TGI (SF-539 CNS): > 100 µM

CCOC(=O)c1cc(C2CCN(Cc3ccccc3)C2=O)c(C(=O)/C=C(/C)N)[nH]1 (configuration not stated)
TGI (KM12 colon): > 100 µM | TGI (HS 578T breast): > 100 µM | TGI (MDA-N): > 100 µM | TGI (UACC-62 melanoma): > 100 µM | TGI (OVCAR-3 ovarian): > 100 µM | TGI (K-562 leukemia): > 100 µM | TGI (NCI-H460 lung): > 100 µM | TGI (HOP-62 NSCLC): > 100 µM | TGI (T-47D breast): > 100 µM | TGI (IGROV1 ovarian): > 100 µM | TGI (EKVX NSCLC): > 100 µM | TGI (MOLT-4 leukemia): > 100 µM | TGI (MALME-3M melanoma): > 100 µM | TGI (BT-549 breast): > 100 µM | TGI (UO-31 renal): > 100 µM | TGI (HCT-116 colon): > 100 µM | TGI (SK-OV-3 ovarian): > 100 µM | TGI (PC-3 prostate): > 100 µM | TGI (SK-MEL-5 melanoma): > 100 µM | TGI (UACC-257 melanoma): > 100 µM | TGI (OVCAR-5 ovarian): > 100 µM | TGI (786-0 renal): > 100 µM | TGI (NCI-H23 lung): > 100 µM | TGI (HCT-15 colon): > 100 µM | TGI (MDA-MB-231 breast): > 100 µM | TGI (A498 renal): > 100 µM | TGI (TK-10 renal): > 100 µM | TGI (U251 CNS): > 100 µM | TGI (SF-295 CNS): > 100 µM | TGI (SW-620 colon): > 100 µM | TGI (SK-MEL-2 melanoma): > 100 µM | TGI (DU-145 prostate): > 100 µM | TGI (COLO 205 colon): > 100 µM | TGI (M14 melanoma): > 100 µM | TGI (NCI-H522 lung): > 100 µM | TGI (OVCAR-4 ovarian): > 100 µM | TGI (SNB-19 CNS): > 100 µM | TGI (HOP-92 NSCLC): 97.5 µM | TGI (CAKI-1 renal): > 100 µM | TGI (HCC-2998 colon): > 100 µM | TGI (MCF7 breast): > 100 µM | TGI (RPMI-8226 leukemia): > 100 µM | TGI (ACHN renal): > 100 µM | TGI (A549 NSCLC): > 100 µM | TGI (OVCAR-8 ovarian): > 100 µM | TGI (NCI/ADR-RES ovarian): > 100 µM | TGI (SK-MEL-28 melanoma): > 100 µM | TGI (MDA-MB-435): > 100 µM | TGI (RXF 393 renal): > 100 µM | TGI (SF-268 CNS): > 100 µM | TGI (HT29 colon): > 100 µM | TGI (SNB-75 CNS): > 100 µM

O=C1/C(=C/c2cccc([N+](=O)[O-])c2)Cc2ccccc21
TGI (KM12 colon): > 100 µM | TGI (HS 578T breast): > 100 µM | TGI (CCRF-CEM leukemia): > 100 µM | TGI (MDA-N): > 100 µM | TGI (UACC-62 melanoma): > 100 µM | TGI (OVCAR-3 ovarian): > 100 µM | TGI (K-562 leukemia): > 100 µM | TGI (NCI-H460 lung): > 100 µM | TGI (HOP-62 NSCLC): > 100 µM | TGI (IGROV1 ovarian): > 100 µM | TGI (EKVX NSCLC): > 100 µM | TGI (MOLT-4 leukemia): > 100 µM | TGI (MALME-3M melanoma): > 100 µM | TGI (BT-549 breast): > 100 µM | TGI (UO-31 renal): > 100 µM | TGI (HCT-116 colon): > 100 µM | TGI (SK-OV-3 ovarian): > 100 µM | TGI (PC-3 prostate): > 100 µM | TGI (NCI-H226 lung): > 100 µM | TGI (UACC-257 melanoma): > 100 µM | TGI (OVCAR-5 ovarian): > 100 µM | TGI (786-0 renal): > 100 µM | TGI (NCI-H23 lung): > 100 µM | TGI (HCT-15 colon): > 100 µM | TGI (MDA-MB-231 breast): > 100 µM | TGI (TK-10 renal): > 100 µM | TGI (U251 CNS): > 100 µM | TGI (SF-295 CNS): > 100 µM | TGI (SW-620 colon): > 100 µM | TGI (SK-MEL-2 melanoma): > 100 µM | TGI (DU-145 prostate): > 100 µM | TGI (COLO 205 colon): > 100 µM | TGI (LOX IMVI melanoma): > 100 µM | TGI (M14 melanoma): > 100 µM | TGI (NCI-H522 lung): > 100 µM | TGI (OVCAR-4 ovarian): > 100 µM | TGI (SNB-19 CNS): > 100 µM | TGI (HOP-92 NSCLC): > 100 µM | TGI (CAKI-1 renal): > 100 µM | TGI (MCF7 breast): > 100 µM | TGI (RPMI-8226 leukemia): > 100 µM | TGI (ACHN renal): > 100 µM | TGI (SN12C renal): > 100 µM | TGI (A549 NSCLC): > 100 µM | TGI (HL-60(TB) leukemia): > 100 µM | TGI (OVCAR-8 ovarian): > 100 µM | TGI (NCI/ADR-RES ovarian): > 100 µM | TGI (SK-MEL-28 melanoma): > 100 µM | TGI (MDA-MB-435): > 100 µM | TGI (SF-268 CNS): > 100 µM | TGI (SR leukemia): > 100 µM | TGI (HT29 colon): > 100 µM | TGI (SNB-75 CNS): > 100 µM | TGI (SF-539 CNS): > 100 µM
